The source of these data is US20050158374A1, “Compositions and dosage forms for enhanced absorption of metformin” (priority 2003, published 2005).

Converted amounts (≈) assume the structure as drawn. Counter-ions that a name gives are not always drawn. Like-named read-outs stand apart in the source and are kept apart here.

The Cmax is the peak of the concentration-time curve.

The conditions of data set [1]: cited from earlier work.
For data set [2] the following is noted: for macroscopic evaluation of the G.I. tract for signs of irritation: end of oral gavage study; for time of plasma concentration maximum after treatment: rat, in vivo, po.
A short description of data set [3]: in vivo. Conditions: rat, po, 40 mg/kg.
Data set [4] in a line: in vivo. Conditions: male, Sprague-Dawley, rat, plasma, other: intracolonic bolus, ligated colon, 10 mg/rat.
Data set [5] in a line: in vivo. Conditions: Sprague-Dawley, rat, plasma, iv, 2 mg/kg.
Data set [6] is described as follows: intravenous administration of metformin HCl to rats. Conditions: for Metformin base plasma concentration, Average / Metformin base plasma concentration, Rat2 / Metformin base plasma concentration, Rat3 / Metformin base plasma concentration, Rat1: 2 mg/kg intravenously.
Data set [7] is described as follows: in vivo colonic absorption using flushed ligated colonic model in rats. Conditions: 10 mg/rat intubated into ligated colon.
For data set [8] the following is noted: in vivo.
Data set [9] is described as follows: conductivity of complexes in aqueous solutions. Conditions: aqueous solution pH≅5.8, 23° C.

In the case of `CCCCCCCCCCCC(=O)O` [Lauric (12), lauric acid], in data set [1] (20° C.), the “Solubility in Acetic acid” value was 818 mg/mL (≈ 4080 mM), the “Solubility in Acetone” value was 605 mg/mL (≈ 3020 mM), the “Solubility in Acetonitrile” value is 76 mg/mL (≈ 379 mM) and the “Solubility in Benzene” value is 936 mg/mL (≈ 4670 mM). Also, in [1] (20° C.), the “Solubility in Chloroform” value was 830 mg/mL (≈ 4140 mM), the “Solubility in Cyclohexanne” value was 680 mg/mL (≈ 3390 mM), the “Solubility in Ethanol 95%” value was 912 mg/mL (≈ 4550 mM) and the “Solubility in Methanol” value was 1200 mg/mL (≈ 5990 mM).
Turning to `CN(C)C(=N)N=C(N)N` [Metformin HCl, metformin hydrochloride], the “macroscopic evaluation of the G.I. tract for signs of irritation” value in data set [2] is reported as “No irritation”. The “time of plasma concentration maximum after treatment” value in [2] was “about 1 hour”. Moreover, in “in vivo [3]”, the peak concentration (Cmax) is ~4080 ng/mL. Besides, the concentration at 0 h in the data set “in vivo [4]” and in the data set “in vivo [5]” was 0 ng/mL throughout. Further, the concentration at 1 h in the data set “in vivo [5]” was found to be 35.5 ng/mL. Further, in the data set “in vivo [5]”, the concentration at 2 h stood at 0 ng/mL. The compound further gave a concentration at 3 h in the data set “in vivo [5]” of 0 ng/mL. The “Metformin base plasma concentration, Average” value in [6] (Time 0 h) was determined as 0.0 ng/mL; in data set [6] (Time 2 min), 2483.3 ng/mL; in data set [6] (Time 0.5 h) it was 229.2 ng/mL; in data set [6] (Time 1 h), 30.4 ng/mL; in data set [6] (Time 1.5 h) it was 22.1 ng/mL; in data set [6] (Time 2 h), 0.0 ng/mL. The “Metformin base plasma concentration, Average” value in [6] (Time 3 h) is recorded as 0.0 ng/mL. Also, the “Metformin base plasma concentration, Rat2” value is on record as 0 ng/mL in data set [6] (Time 0 h); 2370 ng/mL in data set [6] (Time 2 min); 331 ng/mL in data set [6] (Time 0.5 h); 66.3 ng/mL in data set [6] (Time 1.5 h); 0 ng/mL in data set [6] (Time 2 h); 0 ng/mL in data set [6] (Time 3 h). Besides, the “Metformin base plasma concentration, Rat3” value in data set [6] (Time 0 h) worked out at 0 ng/mL; in [6] (Time 2 min), 3650 ng/mL; in [6] (Time 0.5 h), 94.7 ng/mL; in data set [6] (Time 1 h) it was 25.2 ng/mL; in data set [6] (Time 1.5 h) it was 0 ng/mL; in [6] (Time 2 h) it was 0 ng/mL. For the same compound, in data set [6] (Time 3 h), the “Metformin base plasma concentration, Rat3” value is on record as 0 ng/mL. The “Metformin base plasma concentration, Rat1” value in data set [6] (Time 2 min) is 1430 ng/mL; in data set [6] (Time 0.5 h), 262 ng/mL; in data set [6] (Time 1.5 h) it was 0 ng/mL. In addition, the “Area Under the Curve (0-4 hrs, based on 1 mg base/rat)” value is listed as 692.5 ng · h/mL-mg in [6] (i.v.) and 29.2 ng · h/mL-mg in data set [7].
Consider `CCCCCCCCCC(=O)O.CN(C)C(=N)N=C(N)N` [Metformin caprate], for which the “Area Under the Curve (0-4 hrs, based on 1 mg base/rat)” value in [8] was 548.0 ng · h/mL-mg.
Take `CCCCCCCCCCCC(=O)O.CN(C)C(=N)N=C(N)N` [Metformin laurate]: in data set [2], the “macroscopic evaluation of the G.I. tract for signs of irritation” value is “No irritation” and the “time of plasma concentration maximum after treatment” value is “about 1 hour”. The “Area Under the Curve (0-4 hrs, based on 1 mg base/rat)” value in data set [8] is on record as 674.5 ng · h/mL-mg.
For `CCCCCCCCCCCCCC(=O)O` [myristic (14), myristic acid], in data set [1], the “Solubility in Acetic acid” value was 102 mg/mL (≈ 447 mM), the “Solubility in Acetone” value is 159 mg/mL (≈ 696 mM), the “Solubility in Acetonitrile” value is 18 mg/mL (≈ 78.8 mM) and the “Solubility in Benzene” value was 292 mg/mL (≈ 1280 mM). In addition, in data set [1], the “Solubility in Chloroform” value is 325 mg/mL (≈ 1420 mM), the “Solubility in Cyclohexanne” value is 215 mg/mL (≈ 941 mM), the “Solubility in Ethanol 95%” value was 189 mg/mL (≈ 828 mM) and the “Solubility in Methanol” value is 173 mg/mL (≈ 758 mM).
For the compound Metformin oleate, the results for the Conductivity in data set [9] (metformin concentration 5 mM), in [9] (metformin concentration 10 mM) and in data set [9] (metformin concentration 20 mM) were 136 μS/cm, 235 μS/cm and 405 μS/cm, respectively. Also, in [7], the “Area Under the Curve (0-4 hrs, based on 1 mg base/rat)” value came to 408.3 ng · h/mL-mg.
